Results on 28 compounds are retold here after ChEMBL document CHEMBL1142823, “Analysis of structure-activity relationships for the 'B-region' of N-(4-t-butylbenzyl)-N'-[4-(methylsulfonylamino)benzyl]-thiourea analogues as TRPV1 antagonists” (Bioorg Med Chem Lett, 2005).

Where only a bound is given, the exact number is not on record here.

Test [1] addresses T1, Transient receptor potential cation channel subfamily V member 1 (Rattus norvegicus, UniProt O35433). The test is described as follows: Antagonist activity towards rat TRPV1 expressed in CHO cells; Not effective. In kind it is functional, cell-based.
Test [2] has as its target T1, Transient receptor potential cation channel subfamily V member 1. The test is described as follows: Induction of [Ca2+] uptake in CHO cells expressing rat TRPV1 at 10-30 uM relative to 300 nM capsaicin; Not effective. In kind it is functional, cell-based.
Test [3] shares this target. The test is described as follows: In vitro inhibition of [3H]RTX binding to rat TRPV1 expressed in CHO cells. In kind it is cell-based.
Test [4] shares this target. The test is described as follows: Antagonist activity towards rat TRPV1 expressed in CHO cells. Format: functional, cell-based.
The target is the same in test [5]. Kind of test: Induction of [Ca2+] uptake in CHO cells expressing rat TRPV1 at 10-30 uM relative to 300 nM capsaicin; Weakly effective. In kind it is functional, cell-based.
Test [6] shares this target. The test is described as follows: Induction of [Ca2+] uptake in CHO cells expressing rat TRPV1 relative to 300 nM capsaicin. In kind it is functional, cell-based.

T1 sequence (O35433 whole entry): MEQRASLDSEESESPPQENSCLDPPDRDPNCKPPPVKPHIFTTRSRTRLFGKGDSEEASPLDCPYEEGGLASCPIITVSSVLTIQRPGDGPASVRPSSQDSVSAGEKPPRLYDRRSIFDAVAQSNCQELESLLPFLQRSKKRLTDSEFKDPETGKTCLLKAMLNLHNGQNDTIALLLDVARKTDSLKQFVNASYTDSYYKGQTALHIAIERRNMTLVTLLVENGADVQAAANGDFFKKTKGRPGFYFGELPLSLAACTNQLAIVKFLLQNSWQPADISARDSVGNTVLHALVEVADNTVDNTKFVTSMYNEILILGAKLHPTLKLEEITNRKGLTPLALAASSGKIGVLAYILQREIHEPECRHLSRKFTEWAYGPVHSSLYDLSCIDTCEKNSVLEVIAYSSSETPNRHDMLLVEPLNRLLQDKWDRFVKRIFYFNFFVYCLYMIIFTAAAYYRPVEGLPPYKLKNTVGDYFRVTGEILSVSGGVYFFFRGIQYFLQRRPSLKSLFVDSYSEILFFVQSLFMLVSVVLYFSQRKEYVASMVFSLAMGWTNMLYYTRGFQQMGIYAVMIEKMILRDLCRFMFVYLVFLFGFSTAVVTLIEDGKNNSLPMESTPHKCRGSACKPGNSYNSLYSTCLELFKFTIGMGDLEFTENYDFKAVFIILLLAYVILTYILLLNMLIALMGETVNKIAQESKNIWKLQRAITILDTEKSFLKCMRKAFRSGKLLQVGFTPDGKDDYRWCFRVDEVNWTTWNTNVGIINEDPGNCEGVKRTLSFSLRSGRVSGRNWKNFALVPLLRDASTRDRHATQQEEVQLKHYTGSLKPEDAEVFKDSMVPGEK

In the case of `CCCCCCCC/C=C\CCCCCCCCNC(=O)Cc1ccc(NS(C)(=O)=O)cc1`, the Ki result in test [1] was “Not Active”; in test [3], greater than 25000 nM. The EC50 entry in test [2] is listed as “Not Active”.
With `CC(C)(C)c1ccc(CN(O)/C(S)=N/Cc2ccc(NS(C)(=O)=O)c([N+](=O)[O-])c2)cc1`, the EC50 entry in test [2] is “Not Active”. In addition, the Ki in test [4] was found to be 635 nM.
With `CC(C)(C)c1ccc(CNC(=S)NCc2ccc(NS(C)(=O)=O)c(F)c2)cc1`, the concentration giving a half-maximal response (EC50) entry in test [2] is recorded as “Not Active”. The Ki in test [3] turned out to be 53.5 nM.
As for `COc1cc(CO/C(S)=N/Cc2ccc(C(C)(C)C)cc2)ccc1NS(C)(=O)=O`, the EC50 result in test [2] was “Not Active”. Moreover, the Ki in test [3] turned out to be 461 nM; in test [4], 110 nM.
In turn, `CC(C)(C)c1ccc(CN(O)C(=O)Cc2ccc(NS(C)(=O)=O)cc2)cc1` yielded a Ki in test [4] of 6600 nM. In addition, in test [5], the efficacy was 30%.
For `Cc1ccc(CCCNC(=O)Cc2ccc(NS(C)(=O)=O)cc2)cc1C`, the EC50 result in test [2] is listed as “Not Active”. Further, the Ki in test [3] was determined as 7180 nM; in test [4], 13600 nM.
The corresponding values for `CC(C)(C)c1ccc(CNC(=O)Cc2ccc(NS(C)(=O)=O)c(F)c2)cc1` are “Not Active”, 472 nM and 118 nM.
Turning to `COc1cc(C/N=C(\S)N(O)Cc2ccc(C(C)(C)C)cc2)ccc1NS(C)(=O)=O`, in test [1], the Ki result is “Not Active”.
As to `CC(C)(C)c1ccc(CN(O)/C(S)=N/Cc2ccc(NS(C)(=O)=O)c(Cl)c2)cc1`, in test [2], the EC50 entry was “Not Active”. Also, the Ki was 1310 nM in test [3] and 579 nM in test [4].
`CC(C)(C)c1ccc(C/N=C(\S)NNc2ccc(NS(C)(=O)=O)cc2)cc1`: the EC50 entry in test [2] was “Not Active”. This compound yielded a Ki in test [4] of 1460 nM.
As for `CC(C)(C)c1ccc(CNC(=S)NCc2ccc(NS(C)(=O)=O)cc2)cc1`, in test [2], the EC50 entry is on record as “Not Active”.
As for `CC(C)(C)c1ccc(CNC(=O)NCc2ccc(NS(C)(=O)=O)cc2)cc1`, the EC50 result in test [2] is given as “Not Active”. Further, the Ki in test [3] was determined as 2560 nM; in test [4], 225 nM.
Consider `CC(C)(C)c1ccc(CC(=O)N(O)Cc2ccc(NS(C)(=O)=O)cc2)cc1`, for which the Ki result in test [1] is reported as “Not Active”.
In test [4], `CC(C)(C)c1ccc(CN(O)/C(S)=N/Cc2ccc(NS(C)(=O)=O)cc2)cc1` returned a Ki of 470 nM. In test [5], this compound had an efficacy of 16%.
As for `CC(C)(C)c1ccc(CC(=O)NCc2ccc(NS(C)(=O)=O)cc2)cc1`, the Ki worked out at 5220 nM in test [3] and 6760 nM in test [4]. In test [5], this compound showed an efficacy of 20%.
For the compound `Oc1cc2c(cc1O)CN(C(=S)NCCc1ccc(Cl)cc1)CCC2` [CAPSAZEPINE], the EC50 entry in test [2] is “Not Active”.
As to `CC(C)(C)c1ccc(C/N=C(\S)OCc2ccc(NS(C)(=O)=O)cc2)cc1`, the EC50 entry in test [2] was “Not Active”. The figures for the Ki in test [3] and in test [4] were 772 nM and 222 nM, respectively.
With `CC(C)(C)c1ccc(CO/C(S)=N/Cc2ccc(NS(C)(=O)=O)cc2)cc1`, the Ki in test [3] came out at 4600 nM; in test [4], 6250 nM. This compound came in with an efficacy in test [5] of 13%.
With `COc1cc(C/N=C(\S)OCc2ccc(C(C)(C)C)cc2)ccc1NS(C)(=O)=O`, the EC50 entry in test [2] is on record as “Not Active”. The compound also displayed a Ki in test [4] of 8400 nM.
As for `CC(C)(C)c1ccc(CN(O)/C(S)=N/Cc2ccc(NS(C)(=O)=O)cc2Cl)cc1`, the Ki entry is “Not Active” in test [1] and 2270 nM in test [3]. In addition, the EC50 result in test [2] was “Not Active”.
As for `CC(C)(C)c1ccc(C/N=C(\S)N(O)Cc2ccc(NS(C)(=O)=O)cc2)cc1`, the EC50 entry in test [2] was “Not Active”. Further, the affinity in test [4], expressed as Ki, was 470 nM.
Turning to `CC(C)(C)c1ccc(CNC(=O)Cc2ccc(NS(C)(=O)=O)cc2)cc1`, the EC50 entry in test [2] is given as “Not Active”. Besides, the Ki in test [3] was determined as 2100 nM; in test [4] it was 398 nM.
For `COc1cc(CNC(=S)NCc2ccc(C(C)(C)C)cc2)ccc1NS(C)(=O)=O`, the Ki was determined as 50.4 nM in test [3] and 3.4 nM in test [4]. Besides, in test [5], the EC50 result is listed as “Partial agonist”.
Take `Cc1ccc(CCCNC(=O)Cc2ccc(NS(C)(=O)=O)c(F)c2)cc1C`: in test [2], the half-maximal effective concentration (EC50) entry is “Not Active”. The compound also registered a Ki in test [4] of 4660 nM.
Turning to `CC(C)(C)c1ccc(CNC(=O)N(O)Cc2ccc(NS(C)(=O)=O)cc2)cc1`, the Ki result in test [1] is on record as “Not Active”.
With `CC(C)(C)c1ccc(CN(O)/C(S)=N/Cc2ccc(NS(C)(=O)=O)c(F)c2)cc1`, in test [1], the Ki result is recorded as “Not Active”. Besides, in test [6], the EC50 is greater than 7060 nM.
For `CC(C)(C)c1ccc(C/N=C(\S)OCc2ccc(NS(C)(=O)=O)c(F)c2)cc1`, the inhibitory constant (Ki) in test [3] was found to be 450 nM; in test [4] it was 120 nM. The compound further had an efficacy in test [5] of 7%.
`CC(C)(C)c1ccc(N/N=C(\S)NCc2ccc(NS(C)(=O)=O)cc2)cc1`: in test [2], the half-maximal effective concentration (EC50) result is on record as “Not Active”. In addition, the Ki was 6400 nM in test [3] and 2010 nM in test [4].
